#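 Five concentrations, 48 hours, 96-well plates. GI50 = concentration required for 50% inhibition of growth.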 Calls of active or inactive are those of the source. No stated cut-off is given here; in the data, active = GI50 up to about 1.1 µM and inactive = higher.
# Tests used:
# Assay in all cases: inhibition of tumour cell growth, NCI panel, 48 h
# [1] = tested on: HCC 2998
# [2] = tested on: TK-10
# [3] = tested on: SR
# [4] = tested on: HL-60
# [5] = tested on: KM12
# [6] = tested on: A498
# [7] = tested on: OVCAR-3
# [8] = tested on: UO-31
# [9] = tested on: NCI/ADR-RES
# [10] = tested on: CCRF-CEM
# [11] = tested on: LOX IMVI
# [12] = tested on: IGROV-1
# [13] = tested on: EKVX
# [14] = tested on: MDA-MB-231
# [15] = tested on: NCI-H226
# [16] = tested on: NCI-H460
# [17] = tested on: RPMI-8226
# [18] = tested on: K562
# [19] = tested on: MOLT-4
# [20] = tested on: PC-3
# [21] = tested on: HCT-116
# [22] = tested on: UACC-62
# [23] = tested on: HOP-62
# [24] = tested on: 786-0
# [25] = tested on: ACHN
# [26] = tested on: OVCAR-8
# [27] = tested on: OVCAR-4
# [28] = tested on: HCT-15
# [29] = tested on: OVCAR-5
# [30] = tested on: SNB-75
# [31] = tested on: T47D
# [32] = tested on: U-251
# [33] = tested on: SW-620
# [34] = tested on: M14
# [35] = tested on: SF-295
# [36] = tested on: HT-29
# [37] = tested on: Malme-3M
# [38] = tested on: A549
# [39] = tested on: Hs-578T
# [40] = tested on: MDA-N
# [41] = tested on: SK-MEL-5
# [42] = tested on: SNB-19
# [43] = tested on: SF-268
# [44] = tested on: RXF 393
# [45] = tested on: SN12C
# [46] = tested on: NCI-H522
# [47] = tested on: SK-OV-3
# [48] = tested on: NCI-H23
# [49] = tested on: MCF7
# [50] = tested on: SF-539
# [51] = tested on: SK-MEL-28
# [52] = tested on: MDA-MB-435
# [53] = tested on: CAKI-1
# [54] = tested on: COLO 205
# [55] = tested on: UACC-257
# [56] = tested on: DU-145
# [57] = tested on: SK-MEL-2
# [58] = tested on: HOP-92
compound,measurement,setting,value
Cc1ccc2[nH]c(=N/c3ccccc3C)/c(=N\c3ccccc3C)[nH]c2c1,GI50,[1],23.5 µM (inactive)
same,GI50,[2],38.5 µM (inactive)
same,GI50,[3],> 100 µM (inactive)
same,GI50,[4],46.2 µM (inactive)
same,GI50,[5],17.6 µM (inactive)
same,GI50,[6],26.9 µM (inactive)
same,GI50,[7],22.4 µM (inactive)
same,GI50,[8],19.4 µM (inactive)
same,GI50,[9],30 µM (inactive)
same,GI50,[10],> 46.8 µM (inactive)
same,GI50,[11],20 µM (inactive)
same,GI50,[12],20 µM (inactive)
same,GI50,[13],24.5 µM (inactive)
same,GI50,[14],17.1 µM (inactive)
same,GI50,[15],29.2 µM (inactive)
same,GI50,[16],17.3 µM (inactive)
same,GI50,[17],> 100 µM (inactive)
same,GI50,[18],23.8 µM (inactive)
same,GI50,[19],> 100 µM (inactive)
same,GI50,[20],31.3 µM (inactive)
same,GI50,[21],17.7 µM (inactive)
same,GI50,[22],26.3 µM (inactive)
same,GI50,[23],40.2 µM (inactive)
same,GI50,[24],30 µM (inactive)
same,GI50,[25],31.3 µM (inactive)
same,GI50,[26],34.3 µM (inactive)
same,GI50,[27],47.2 µM (inactive)
same,GI50,[28],22.3 µM
same,GI50,[29],21.5 µM (inactive)
same,GI50,[30],34.7 µM (inactive)
same,GI50,[31],19.3 µM (inactive)
same,GI50,[32],26.1 µM (inactive)
same,GI50,[33],32.3 µM (inactive)
same,GI50,[34],43.8 µM (inactive)
same,GI50,[35],21.4 µM (inactive)
same,GI50,[36],23 µM (inactive)
same,GI50,[37],22.2 µM (inactive)
same,GI50,[38],20.5 µM (inactive)
same,GI50,[39],24.1 µM (inactive)
same,GI50,[40],25.5 µM (inactive)
same,GI50,[41],22.1 µM (inactive)
same,GI50,[42],46.8 µM (inactive)
same,GI50,[43],48.1 µM (inactive)
same,GI50,[44],17.3 µM (inactive)
same,GI50,[45],32.7 µM (inactive)
same,GI50,[46],10.2 µM (inactive)
same,GI50,[47],43 µM (inactive)
same,GI50,[48],15.7 µM (inactive)
same,GI50,[49],77.3 µM (inactive)
same,GI50,[50],37.2 µM (inactive)
same,GI50,[51],64.4 µM (inactive)
same,GI50,[52],32.2 µM (inactive)
same,GI50,[53],27.9 µM (inactive)
same,GI50,[54],16.1 µM (inactive)
same,GI50,[55],25.6 µM (inactive)
same,GI50,[56],41.1 µM (inactive)
same,GI50,[57],12.7 µM (inactive)
same,GI50,[58],19.4 µM (inactive)
CC(=O)OCC1OC(n2c3c(c(-c4ccco4)c(C#N)c2=S)CCCC3)C(OC(C)=O)C(OC(C)=O)C1OC(C)=O (stereo unspecified),GI50,[1],> 10 µM (inactive)
same,GI50,[2],15.7 µM (inactive)
same,GI50,[3],> 31.6 µM (inactive)
same,GI50,[4],> 10 µM (inactive)
same,GI50,[5],> 31.6 µM (inactive)
same,GI50,[6],12.1 µM (inactive)
same,GI50,[7],23.2 µM (inactive)
same,GI50,[8],22.6 µM (inactive)
same,GI50,[9],17.1 µM (inactive)
same,GI50,[10],> 10 µM (inactive)
same,GI50,[11],> 31.6 µM (inactive)
same,GI50,[12],21.9 µM (inactive)
same,GI50,[13],16.6 µM (inactive)
same,GI50,[14],29.6 µM (inactive)
same,GI50,[15],21.9 µM (inactive)
same,GI50,[16],22.9 µM (inactive)
same,GI50,[17],> 100 µM (inactive)
same,GI50,[18],> 10 µM (inactive)
same,GI50,[19],> 31.6 µM (inactive)
same,GI50,[20],> 10 µM (inactive)
same,GI50,[21],21.3 µM (inactive)
same,GI50,[22],> 10 µM (inactive)
same,GI50,[23],13.3 µM (inactive)
same,GI50,[24],25.1 µM (inactive)
same,GI50,[25],17.8 µM (inactive)
same,GI50,[26],31.6 µM (inactive)
same,GI50,[27],9.16 µM (inactive)
same,GI50,[28],> 31.6 µM
same,GI50,[29],> 31.6 µM (inactive)
same,GI50,[30],8.2 µM (inactive)
same,GI50,[31],> 31.6 µM (inactive)
same,GI50,[32],> 10 µM (inactive)
same,GI50,[33],> 100 µM (inactive)
same,GI50,[34],> 100 µM (inactive)
same,GI50,[35],13.7 µM (inactive)
same,GI50,[36],> 31.6 µM (inactive)
same,GI50,[37],> 31.6 µM (inactive)
same,GI50,[38],30 µM (inactive)
same,GI50,[39],29.4 µM (inactive)
same,GI50,[40],> 31.6 µM (inactive)
same,GI50,[41],16.3 µM (inactive)
same,GI50,[42],15.6 µM (inactive)
same,GI50,[43],13.5 µM (inactive)
same,GI50,[44],> 10 µM (inactive)
same,GI50,[45],> 31.6 µM (inactive)
same,GI50,[46],16.3 µM (inactive)
same,GI50,[47],> 10 µM (inactive)
same,GI50,[48],> 20.2 µM (inactive)
same,GI50,[49],> 76.2 µM (inactive)
same,GI50,[50],17.6 µM (inactive)
same,GI50,[51],> 31.6 µM (inactive)
same,GI50,[52],> 100 µM (inactive)
same,GI50,[53],29.7 µM (inactive)
same,GI50,[54],> 31.6 µM (inactive)
same,GI50,[55],> 31.6 µM (inactive)
same,GI50,[56],> 31.6 µM (inactive)
same,GI50,[57],17.9 µM (inactive)
same,GI50,[58],7.36 µM (inactive)

# From ChEMBL document CHEMBL1201862, “PubChem BioAssay data set” (2004)
